Test: solubility of the crystallized granular sorbitol compared with the prior art
Type: physicochemical
Details: sorbitol granules of Example 1 after two hours long maturation; in comparison with the prior art

solubility: definitely improved
Structure (SMILES): OC[C@@H](O)[C@@H](O)[C@H](O)[C@@H](O)CO [sorbitol granules, sorbitol]

Source: patent publication US6416585B1, “Method for crystallizing polyols and sugars” (Vomm Chemipharma S.r.l., priority 1999, dated 2002)
